Results published in ChEMBL document CHEMBL1201862, “PubChem BioAssay data set” (2004).
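Interpolation was linear, between the two tested concentrations surrounding the appropriate level; five concentrations were tested over 48 hours in 96-well plates. Here, GI50 denotes the concentration required for 50% inhibition of growth.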 The source made the active and inactive calls. Rule as the data show it: active = GI50 up to about 1.1 µM and inactive = higher.

Columns and labels:
Assay in all cases: DTP human tumour cell line panel, 48 h
[1] = tested on: OVCAR-3
[2] = tested on: NCI-H226
[3] = tested on: HCC 2998
[4] = tested on: M14
[5] = tested on: HT-29
[6] = tested on: TK-10
[7] = tested on: K562
[8] = tested on: Malme-3M
[9] = tested on: CCRF-CEM
[10] = tested on: SN12C
[11] = tested on: A498
[12] = tested on: U-251
[13] = tested on: Hs-578T
[14] = tested on: OVCAR-8
[15] = tested on: MDA-N
[16] = tested on: UACC-257
[17] = tested on: HOP-92
[18] = tested on: NCI/ADR-RES
[19] = tested on: UO-31
[20] = tested on: NCI-H522

Measured: GI50

O=C1/C(=c2\s/c(=C\c3ccccc3)c(=O)n2-c2ccccc2)SC(=S)N1c1ccccc1
inactive: [1] 27.2 µM | [2] 25.5 µM | [3] 70.5 µM | [4] > 100 µM | [5] > 100 µM | [6] 28.9 µM | [7] 47.2 µM | [8] 28.7 µM | [9] 32.8 µM | [10] 35.6 µM | [11] 39.2 µM | [12] 23.4 µM | [13] 34.4 µM | [14] 82.6 µM | [15] 94.6 µM | [16] 72.9 µM | [17] 33 µM | [18] 28 µM

CC(C)C(/C=C/c1ccc(Cl)cc1)=N\NC(=S)NN
inactive: [1] 20.1 µM | [2] 10.4 µM | [19] 17.9 µM | [3] 44.2 µM | [4] 18.9 µM | [5] 23.3 µM | [6] 8.87 µM | [7] 3.55 µM | [20] 6.58 µM | [8] 25.2 µM | [9] 2.68 µM | [10] 14.1 µM | [11] 23.8 µM | [12] 6.61 µM | [13] 14.6 µM | [14] 12 µM | [15] 26.2 µM | [16] 22.5 µM | [18] 17.7 µM

CC(=O)/N=C1\N/C(=C\c2ccc(Cl)cc2)C(=O)N1/C=C1\C(=O)Oc2ccccc2C1=O
inactive: [1] 77.8 µM | [2] > 100 µM | [3] > 100 µM | [4] > 100 µM | [5] > 100 µM | [7] 67.3 µM | [20] 78.9 µM | [8] > 100 µM | [9] > 100 µM | [10] > 100 µM | [11] 10.8 µM | [12] 61.1 µM | [13] 1.4 µM | [14] > 100 µM | [15] > 100 µM | [16] > 100 µM | [18] > 100 µM

CC(C)(NO)/C(=N\O)c1ccco1
inactive: [1] > 100 µM | [2] > 100 µM | [19] > 100 µM | [3] > 100 µM | [4] > 100 µM | [5] > 100 µM | [6] > 100 µM | [8] > 100 µM | [10] > 100 µM | [12] > 100 µM | [13] 24 µM | [14] > 100 µM | [15] > 100 µM | [16] > 100 µM | [17] > 100 µM | [18] > 100 µM

COC(=O)C1=C(C(=O)OC)C(C(=O)c2ccccc2)N2N=C(c3ccc(Cl)cc3)C=CC12 (configuration not stated)
inactive: [1] > 100 µM | [2] 13.9 µM | [19] > 100 µM | [3] > 100 µM | [4] > 100 µM | [5] 9.59 µM | [6] 2.85 µM | [7] 30.3 µM | [20] 5.07 µM | [8] 11.2 µM | [9] 13.6 µM | [10] 85.5 µM | [11] > 100 µM | [12] > 100 µM | [14] 12.4 µM | [15] 15.3 µM | [16] > 100 µM | [17] > 100 µM | [18] 8.07 µM

CCOC(=O)NC(Nc1ncn(C(NC(=O)OCC)(C(F)(F)F)C(F)(F)F)n1)(C(F)(F)F)C(F)(F)F
inactive: [1] > 100 µM | [2] > 100 µM | [19] 12.2 µM | [3] 29.9 µM | [4] > 100 µM | [5] > 100 µM | [6] > 100 µM | [7] > 100 µM | [8] > 100 µM | [9] > 100 µM | [10] > 100 µM | [11] > 100 µM | [12] > 100 µM | [13] > 100 µM | [14] > 100 µM | [15] > 100 µM | [16] > 100 µM | [17] > 100 µM | [18] > 100 µM

COc1ccc(/C(C)=N/OC(=O)c2c(-c3ccccc3Cl)noc2C)cc1CN1CCOCC1
inactive: [1] 21.7 µM | [2] 88.1 µM | [19] 3.75 µM | [3] 30.5 µM | [4] 14 µM | [5] 18.3 µM | [6] 43.1 µM | [7] 28.2 µM | [20] 17.8 µM | [8] 21.2 µM | [9] 66.7 µM | [10] 18.7 µM | [12] 25.4 µM | [13] 28.9 µM | [14] 29.3 µM | [15] 18.8 µM | [16] 17.9 µM | [17] 24.2 µM | [18] 34.1 µM
